Assay results published in patent US4912036A, “Rapid differentiation of bacteria using cyclic polypeptide antibiotics” (Eastman Kodak Company, priority 1986, dated 1990).

Columns and labels:
[1] = tested on: P. aeruginosa; assay: RIND XXIX reduction solution assay, Δ fluorescence; type: cell-based, Pseudomonas aeruginosa; settings: P. aeruginosa (gram -) about 5×10^7 cells/ml, gramicidin S 0.1 mg/ml, 37° C.
Protocol: (§1) Bacterial suspensions were prepared by growing the cells in BHT broth to stationary phase overnight at 37° C. P. auruginosa was grown with agitation. About 40 ml of each overnight culture was centrifuged, decanted and washed once with 0.05 molar potassium phosphate buffer or 0.05 molar N-2-hydroxy-ethylpiperazine-N'-2-ethanesulfonic acid (HEPES) buffer, pH 7.8, and resuspended in buffer.
(§2) Dispersions containing RIND compounds were prepared by dissolving the RIND compound in N,N-dimethylformamide (DMF) at 16 mg compound per ml of solvent. An aliquot (250 μl) of the resulting solution was added to 500 μl of TRITON X-100 surfactant. This mixture was then added dropwise with stirring to 25 ml of 0.05 molar HEPES buffer. A dispersion of RIND XXIX was prepared similarly except that DMF was acidified with 0.1% sulfuric acid. Compositions containing water-compatible RIND compounds were prepared as described above except the surfactant was omitted.
(§3) Each test solution contained the following: dispersion of RIND XXIX (25 μl) prepared as described above, glucose (400 μl of 10% aqueous solution), tryptose (400 μl of 10% aqueous solution), trimethyl-1,4-benzoquinone ETA (500 μl of 1.5 mg/ml methanol). Aliquots (200 μl) of the mixture were mixed with solutions of the antibiotics (50 μl). The cell suspensions (50 μl) were then added. The final concentration of gramcidin S and tyrocidin were 0.1 mg/ml and 3.3 mg/ml, respectively. The final cell concentration was about 5×10^7 cells/ml. Cell control solutions contained all reagents except antibiotics. Background controls consisted of both buffer and solution controls. […]
(§4) The solutions were incubated at 37° C. for 30 minutes, and the change in fluorescence emission (Δ fluorescence) was determined as the difference between the readings taken when the solutions were first mixed and then after 30 minutes incubation. Measurements were made in a commercially available MICROFLUOR Reader (available from Dynatech Laboratories, Alexandria, Virginia, U.S.A.), modified with an excitation filter at 540 nm, an emission filter at 620 nm and a Xenon lamp. […]

[2] = tested on: K. pneumoniae; assay: RIND XXIX reduction solution assay, Δ fluorescence; type: cell-based, Klebsiella pneumoniae; settings: K. pneumoniae (gram -) about 5×10^7 cells/ml, gramicidin S 0.1 mg/ml, 37° C.
Protocol: as §1, §2, §3, §4

[3] = tested on: P. vulgaris; assay: RIND VII reduction solution assay, ΔOD 635 nm; type: cell-based, Proteus vulgaris; settings: P. vulgaris 7 × 10^7 /ml, antibiotic 10^-4 molar
Protocol: as §1
(§5) TERGITOL 7 anionic surfactant was used to differentiate viable bacteria according to the prior art method. Various concentrations of TERGITOL 7 surfactant were mixed with a 10% glucose solution (50 μl), 3-(4,5-dimethyl-2-thiazolyl)-2,5-diphenyl-2N-tetrazolium bromide (MTT) (25 μl at 5 mg/ml methanol) or a RIND VII dispersion (1.5 ml) and phenazine methosulfate ETA (25 μl at 3 mg/ml methanol). The volume of each test solution was brought to 3 ml with potassium phosphate buffer. A cell suspension (100 μl at about 10^8 cells/ml) was then added. The solutions were incubated at 37° C. for 15 and 30 minutes in the presence of either E. coli, a gram(-) bacterium, or S. aureus, a gram(+) bacterium. The amount of dye formed was then determined visually, and graded as follows: "O" indicates no dye formation, +/- indicates faint dye formation, 1+ indicates light dye formation, 2+ indicates moderate dye formation, 3+ indicates strong dye formation, and 4+ indicates very strong dye formation. […]

[4] = tested on: P. aeruginosa; assay: MTT reduction solution assay, ΔOD 540 nm; type: cell-based, Pseudomonas aeruginosa; settings: P. aeruginosa (-) 5×10^7, gramicidin S 0.00625 mg/ml, 37° C.
Protocol: (§6) These examples illustrate the differentiation of bacteria using a tetrazolium salt and phenolic dye as the reducible compounds and two cyclic polypeptide antibiotics according to the present invention. The tetrazolium salt was 3-(4,5-dimethyl-2-thiazolyl) -2,5-diphenyl-2H-tetrazolium bromide (MTT) which forms a colored formazan dye when reduced. The phenolic dye was 2,6-dichloroindophenol (DCIP) which forms a colorless species when reduced.
(§7) Solutions of the reducible compounds were prepared with the following: HEPES buffer (3 ml, 0.05 molar, pH 7.5), TRITON X-100 nonionic surfactant (1% concentration), glucose (50 μl of 10% in water), tryptose (50 μl of a 10% solution in water), MTT (25 μl of 5 mg/ml methanol) or DCIP (25 μl of 3 mg/ml methanol) and phenazine methosultate ETA (25 μl of 3 mg/ml methanol).
(§8) Test solutions were prepared from the following: reducible compound solution from above (200 μl), 50 μl of either gramicidin S solution (6 mg/ml methanol and 9 ml of buffer) or tyrocidin solution (100 mg/ml methanol and 8 ml of buffer) and 50 μl of cell suspension. […] The change in optical density (ΔOD) was determined after 30 minutes at 37° C. at 540 nm for the MTT assay and at 620 nm for the DCIP assay using a commercially available spectrophotometer.

[5] = tested on: P. vulgaris; assay: RIND XXIX reduction solution assay, Δ fluorescence; type: cell-based, Proteus vulgaris; settings: P. vulgaris (gram -) about 5×10^7 cells/ml, gramicidin S 0.1 mg/ml, 37° C.
Protocol: as §1, §2, §3, §4

[6] = tested on: S. faecalis; assay: RIND VII reduction solution assay, ΔOD 635 nm; type: cell-based, Streptococcus faecalis; settings: S. faecalis 7 × 10^7 /ml, antibiotic 10^-4 molar
Protocol: as §1, §5

[7] = tested on: E. coli; assay: MTT reduction solution assay, ΔOD 540 nm; type: cell-based, Escherichia coli; settings: E. coli (-) 5×10^7, gramicidin S 0.00625 mg/ml, 37° C.
Protocol: as §6, §7, §8

## gramicidin S
[1]
  Δ Fluorescence (30 Minutes): > 4000
[2]
  Δ Fluorescence (30 Minutes): 3084
[3]
  Corrected ΔOD (15 Minutes): > 2.0
[4]
  ΔOD, 540 nm after 30 Minutes: 0.955
[5]
  Δ Fluorescence (30 Minutes): 3491
[6]
  Corrected ΔOD (15 Minutes): 0.125
[7]
  ΔOD, 540 nm after 30 Minutes: 1.123
